Measured values from patent US10150793B2, “Antagonists of CB1 receptor” (INSERM (Institut National de la Santé et de la Recherche …, priority 2011, dated 2018).

Tests used:
[1] = target: CB1 receptor (Mus musculus, UniProt P47746); experiment: Food intake in 24 h-food deprived mice (fasting/refeeding); format: in vivo, C57B1/6 mice; design: tissue Charles River Laboratories (France) (animals); host or cells: living mice, whole animal; details: for effect on food intake in 24 h-food deprived mice: food intake over 1 h
Chain of CB1 receptor (Mus musculus, UniProt P47746) (P47746 whole entry): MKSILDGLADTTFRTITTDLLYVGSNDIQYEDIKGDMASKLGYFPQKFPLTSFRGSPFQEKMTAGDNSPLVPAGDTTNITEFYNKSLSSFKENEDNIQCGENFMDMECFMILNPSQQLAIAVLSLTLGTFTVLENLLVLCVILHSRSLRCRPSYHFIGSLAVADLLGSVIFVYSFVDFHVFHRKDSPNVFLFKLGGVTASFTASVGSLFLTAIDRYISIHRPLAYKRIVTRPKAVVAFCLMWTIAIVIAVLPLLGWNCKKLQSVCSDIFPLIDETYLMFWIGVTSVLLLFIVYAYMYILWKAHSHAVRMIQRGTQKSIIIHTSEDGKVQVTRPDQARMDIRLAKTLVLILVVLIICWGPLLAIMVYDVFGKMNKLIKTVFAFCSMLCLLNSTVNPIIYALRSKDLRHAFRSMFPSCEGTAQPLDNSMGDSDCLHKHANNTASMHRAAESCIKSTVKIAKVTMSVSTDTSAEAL

[2] = target: T1, CB1 receptor (Rattus norvegicus, UniProt P20272); experiment: THC-induced increase in food intake in ad libitum fed Wistar rats; format: in vivo; design: tissue Charles River Laboratories (France) (animals); host or cells: living Wistar rats, whole animal
T1 sequence (P20272 whole entry): as the sequence (P47746 whole entry) above, with D95E counted along it
Experimental: Food intake was evaluated by measuring consumption of food in the home cages of the animals. For each animal, 50-100 g of standard laboratory chow (U.A.R., France) was placed in the cleaned home cage. The remaining amount of food was weighted 1 h later and the amount of food consumed calculated.

[3] = Brain steroid levels after pregnenolone injections; format: in vivo, C57B1/6 mice; details: pregnenolone injections between 2 and 8 mg/kg
Experimental: Data are expressed as mean±SEM (n=7-8 per group). *=P<0.05, ***=P<0.001 compared to vehicle-treated animals (PREG 0 mg/kg).
In this example the inventors studied the effects of the doses of pregnenolone (between 2 and 8 mg/kg) that were able to inhibit the effects of CB1 activation in mice.

[4] = target: T2, human CB1 receptor (Homo sapiens, UniProt P21554); experiment: Radioligand binding of the CB1 agonist [3H]CP55,940 in CHO cells; details: pregnenolone 10^-12 to 10^-4 M
T2 construct: host or cells: CHO cells
T2 sequence (P21554 whole entry): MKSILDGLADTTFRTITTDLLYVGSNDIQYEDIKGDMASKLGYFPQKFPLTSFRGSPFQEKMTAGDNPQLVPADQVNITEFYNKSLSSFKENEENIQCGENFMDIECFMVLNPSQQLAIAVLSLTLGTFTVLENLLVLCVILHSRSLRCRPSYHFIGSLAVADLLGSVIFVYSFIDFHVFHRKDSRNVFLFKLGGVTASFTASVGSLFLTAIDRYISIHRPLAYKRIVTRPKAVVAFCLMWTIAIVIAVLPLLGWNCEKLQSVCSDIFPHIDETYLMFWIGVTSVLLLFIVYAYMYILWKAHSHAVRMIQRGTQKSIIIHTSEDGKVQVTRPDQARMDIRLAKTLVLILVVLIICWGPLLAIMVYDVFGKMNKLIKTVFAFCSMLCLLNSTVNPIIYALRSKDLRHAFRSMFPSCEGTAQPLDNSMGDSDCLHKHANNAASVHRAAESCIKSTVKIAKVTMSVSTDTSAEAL
Experimental: The binding assay for orthosteric binding of pregnenolone has been evaluated using Chinese hamster ovary (CHO) cells expressing the human CB1 receptor.
The CB1 binding of pregnenolone has been evaluated by the affinity of pregnenolone for the agonist site of the human CB1 cannabinoid receptor expressed in CHO cells, determined in a radioligand binding assay of the CB1 agonist [3H] CP 55940. The experiments were performed by CEREP France, using the standard procedures of this provider.

[5] = target: T1, CB1 receptor; experiment: THC inhibition of AMPAR-mediated EPSC, patch clamp in nucleus accumbens slices; format: cell-based, rats; design: from tissue; host or cells: acute coronal brain slices, nucleus accumbens; details: slices pre-treated with Pregnenolone 100 nM
[6] = test system: dopaminergic neurons; experiment: Coupled in vivo microdialysis and electrophysiology: VTA dopaminergic neuron firing and dopamine outflow in nucleus accumbens; design: species or system rats
Experimental: Surgery and perfusion procedure were performed to allow concomitant electrophysiological and microdialysis monitoring. Briefly, rats were anesthetized using a 2% mixture of isoflurane/air, and a catheter was inserted into the femoral vein for intravenous drug administration. Thereafter, animals were placed in a stereotaxic frame (David Kopf Instruments, Phymep, Paris, France) equipped with a nose mask for constant delivery of the gas anesthesia (2% isoflurane during surgery, 1.5% isoflurane during electrophysiology and microdialysis experiment), and their rectal temperature was monitored and maintained at 37±1° C. by a heating pad (CMA 150, Carnégie Medecin, Phymep). […]
Single unit recording of DA neuronal firing and monitoring of DA extracellular levels were started 2 h after the beginning of probe perfusion (stabilization period). Dialysates (30 μL) were collected on ice every 15 min, and immediately analyzed to determine the baseline values of DA extracellular levels, defined by three consecutive samples in which DA content varied by less than 10% (9). […] DA neuron firing rate was recorded for 3-5 min to obtain the firing baseline, defined by a variation of less than 10% of the average frequency discharge of the DA neuron. […]
In this example the inventors further analyzed the ability of pregnenolone to inhibit the effects of CB1 activation. […]

CC(=O)[C@H]1CC[C@H]2[C@@H]3CC=C4C[C@@H](O)CC[C@]4(C)[C@H]3CC[C@]12C [Pregnenolone, 5-Pregnen-3β-ol-20-one]
first statistically significant dose for decrease of food intake ([1]; food-deprived (food-restricted) mice, no THC): 6 mg/kg | effect on food intake in 24 h-food deprived mice ([1]; no THC): dose-dependently decreased food intake | effect on food intake in 24 h-food deprived mice ([1]; no THC, listed as pregnenolone): dose dependently decreased food intake | effect on food intake over 24 hours in fasting/refeeding model ([1]; pregnenolone): no significant effect was seen over 24 hours | effect on THC-induced food intake in sated rats ([2]; THC 0.5 mg/kg, pregnenolone 30 min before THC): dose-dependently decreased THC-induced food intake | effect on basal food intake ([2]; pregnenolone 2 mg/kg, FIG. 3 A, B): did not significantly modified basal food intake | dose with statistically significant effect on THC-induced food intake ([2]; sated rats, THC 0.5 mg/kg): 2 mg/kg | brain concentrations of downstream metabolites (epiallopregnanolone, allopregnanolone) [3]: did not modify the concentrations of downstream metabolites | brain levels of pregnenolone [3]: increased brain levels of pregnenolone | orthosteric binding of the CB1 agonist [3H]CP55,940 [4]: did not modify the specific binding | orthosteric binding of the CB1 agonist [3H]CP55,940 ([4]; listed as pregnenolone): did not displace the orthosteric binding | inhibition of EPSC amplitude by THC [5]: 15.1±1.8 % of inhibition | effect on cocaine-induced increase in activity of the dopaminergic system ([6]; pregnenolone 2 mg/kg sc 30 min before cocaine 0.0125 to 0.8 mg/kg iv cumulative): able to antagonize the increase in activity of the dopaminergic system | effect on THC-induced increase in dopamine release and dopaminergic neuron activity ([6]; sc 30 min prior to THC 0.15 to 1.2 mg/kg iv cumulative): strongly blunted the increase in dopamine release and in the activity of the dopaminergic neurons
